Assay results: patent publication US20180280377A1, “Imidazo[4,5-c]quinolin-2-one Compounds and Their Use in Treating Cancer” (ASTRAZENECA AB, priority 2015, published 2018)

Tests used:
[1] = target: T1, ATM (Homo sapiens, UniProt Q13315); assay: ATM cellular potency assay (pATM Ser1981 in irradiated HT29 cells); assay type: cell-based; settings: 1 h compound, X-ray irradiation, pATM (Ser1981); Table 2; read-out: Assay a) ATM Cell IC50
T1 construct: endogenous in cells; host or cells: HT29 cells (ECACC #85061109)
Description: (§1) The following assays were used to measure the effects of the compounds of the present invention: a) ATM cellular potency assay; b) PI3K cellular potency assay; c) mTOR cellular potency assay; d) ATR cellular potency assay. During the description of the assays, generally: • i. […] IC50 values were calculated using a smart fitting model in Genedata.
Most ATM molecules in the cell are rapidly phosphorylated on this site after doses of radiation as low as 0.5 Gy, and binding of a phosphospecific antibody is detectable after the introduction of only a few DNA double-strand breaks in the cell.
The rationale of the pATM assay is to identify inhibitors of ATM in cells. HT29 cells are incubated with test compounds for 1 h prior to X-ray-irradiation. 1 h later the cells are fixed and stained for pATM (Ser1981). The fluorescence is read on the arrayscan imaging platform.
The following morning compounds of Formula (I) in 100% DMSO were added to assay plates by acoustic dispensing. After 1 h incubation at 37° C. and 5% CO2, plates (up to 6 at a time) were irradiated using the X-RAD 320 instrument (PXi) with equivalent to 600 cGy. Plates were returned to the incubator for a further 1 h. Then cells were fixed by adding 20 μl of 3.7% formaldehyde in PBS solution and incubating for 20 minutes at r.t. before being washed with 50μl/well PBS, using a Biotek EL405 plate washer. Then 20 μl of 0.1% Triton X100 in PBS was added and incubated for 20 minutes at r.t., to permeabalise cells. Then the plates were washed once with 50 μl/well PBS, using a Biotek EL405 plate washer.
After 1 h incubation at r.t., the plates were washed three times with 50 μl/well PBS, using a Biotek EL405 plate washer, and plates were sealed and kept in PBS at 4° C. until read. Plates were read using an ArrayScan VTI instrument, using an XF53 filter with 10× objective.

[2] = target: T2, ATR (Homo sapiens, UniProt Q13535); assay: ATR cellular potency assay (pChk1 Ser345 in HT29 cells after 4NQO); assay type: cell-based; settings: pChk1 (Ser 345); Table 2; read-out: Assay b) ATR Cell IC50
T2 construct: endogenous in cells; host or cells: HT29 cells (ECACC #85061109)
T2 sequence (Q13535 whole entry): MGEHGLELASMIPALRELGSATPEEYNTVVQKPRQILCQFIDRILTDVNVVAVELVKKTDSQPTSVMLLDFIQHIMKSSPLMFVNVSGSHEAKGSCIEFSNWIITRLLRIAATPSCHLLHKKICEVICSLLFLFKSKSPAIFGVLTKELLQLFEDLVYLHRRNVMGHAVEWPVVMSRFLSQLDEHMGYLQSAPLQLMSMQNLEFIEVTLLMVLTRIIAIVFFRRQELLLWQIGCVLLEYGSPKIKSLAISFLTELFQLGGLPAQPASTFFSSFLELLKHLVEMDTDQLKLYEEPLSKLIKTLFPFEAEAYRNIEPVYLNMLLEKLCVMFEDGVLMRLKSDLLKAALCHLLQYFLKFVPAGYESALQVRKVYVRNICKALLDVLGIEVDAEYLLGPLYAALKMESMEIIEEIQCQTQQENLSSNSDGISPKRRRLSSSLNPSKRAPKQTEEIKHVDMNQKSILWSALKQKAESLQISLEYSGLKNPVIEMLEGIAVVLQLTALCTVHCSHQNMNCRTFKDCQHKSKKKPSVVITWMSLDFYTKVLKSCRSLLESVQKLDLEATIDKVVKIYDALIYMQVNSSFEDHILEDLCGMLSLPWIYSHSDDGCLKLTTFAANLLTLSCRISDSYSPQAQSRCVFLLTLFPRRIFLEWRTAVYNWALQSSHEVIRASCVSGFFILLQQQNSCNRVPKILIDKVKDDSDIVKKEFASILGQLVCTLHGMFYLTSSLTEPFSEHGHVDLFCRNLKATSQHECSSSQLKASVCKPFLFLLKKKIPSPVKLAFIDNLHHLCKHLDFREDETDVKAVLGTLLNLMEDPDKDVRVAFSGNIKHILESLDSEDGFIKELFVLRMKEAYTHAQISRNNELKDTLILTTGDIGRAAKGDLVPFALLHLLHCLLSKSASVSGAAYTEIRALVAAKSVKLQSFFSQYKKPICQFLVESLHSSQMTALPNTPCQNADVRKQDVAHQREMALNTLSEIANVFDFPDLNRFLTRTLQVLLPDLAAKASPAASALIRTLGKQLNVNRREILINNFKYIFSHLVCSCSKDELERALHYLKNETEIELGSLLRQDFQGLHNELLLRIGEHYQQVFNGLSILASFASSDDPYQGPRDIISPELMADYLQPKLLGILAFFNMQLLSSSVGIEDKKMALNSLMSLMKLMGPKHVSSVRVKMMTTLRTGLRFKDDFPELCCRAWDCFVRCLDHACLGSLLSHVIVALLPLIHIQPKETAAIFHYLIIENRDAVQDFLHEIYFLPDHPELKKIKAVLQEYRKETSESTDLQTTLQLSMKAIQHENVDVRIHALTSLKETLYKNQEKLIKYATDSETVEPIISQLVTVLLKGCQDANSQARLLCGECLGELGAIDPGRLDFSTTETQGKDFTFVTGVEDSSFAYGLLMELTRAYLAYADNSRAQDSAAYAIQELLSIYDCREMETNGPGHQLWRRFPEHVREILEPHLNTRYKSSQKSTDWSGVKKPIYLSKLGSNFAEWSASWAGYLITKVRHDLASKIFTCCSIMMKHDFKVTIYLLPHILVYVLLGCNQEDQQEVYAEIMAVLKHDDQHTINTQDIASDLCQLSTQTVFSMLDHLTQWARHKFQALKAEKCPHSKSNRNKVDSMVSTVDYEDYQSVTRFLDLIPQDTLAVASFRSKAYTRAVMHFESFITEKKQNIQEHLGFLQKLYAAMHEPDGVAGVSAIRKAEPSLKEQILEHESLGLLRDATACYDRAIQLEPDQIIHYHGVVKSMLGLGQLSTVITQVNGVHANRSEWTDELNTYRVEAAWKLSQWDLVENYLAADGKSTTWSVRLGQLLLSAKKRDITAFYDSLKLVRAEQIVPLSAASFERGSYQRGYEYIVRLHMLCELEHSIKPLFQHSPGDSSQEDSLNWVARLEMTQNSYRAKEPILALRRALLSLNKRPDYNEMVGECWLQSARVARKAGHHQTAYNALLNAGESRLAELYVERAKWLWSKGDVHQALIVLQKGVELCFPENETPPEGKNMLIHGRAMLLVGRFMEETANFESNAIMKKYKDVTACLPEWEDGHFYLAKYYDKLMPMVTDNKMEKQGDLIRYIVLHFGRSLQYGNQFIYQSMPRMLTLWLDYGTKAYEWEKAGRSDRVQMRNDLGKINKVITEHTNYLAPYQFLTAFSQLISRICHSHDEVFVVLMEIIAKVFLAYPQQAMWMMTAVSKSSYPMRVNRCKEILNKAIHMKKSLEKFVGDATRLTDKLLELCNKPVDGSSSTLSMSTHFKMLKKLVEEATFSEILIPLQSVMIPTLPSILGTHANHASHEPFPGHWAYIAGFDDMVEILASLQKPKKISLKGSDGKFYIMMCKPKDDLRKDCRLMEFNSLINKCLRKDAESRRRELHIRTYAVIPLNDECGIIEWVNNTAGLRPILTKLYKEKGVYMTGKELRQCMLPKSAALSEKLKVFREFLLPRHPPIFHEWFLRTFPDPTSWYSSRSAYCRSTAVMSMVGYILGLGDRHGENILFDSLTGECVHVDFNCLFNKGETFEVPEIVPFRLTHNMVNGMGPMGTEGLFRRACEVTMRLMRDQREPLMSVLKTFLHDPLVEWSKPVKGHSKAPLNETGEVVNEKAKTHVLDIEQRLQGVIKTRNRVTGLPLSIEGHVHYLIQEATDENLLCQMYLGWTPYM
T2 sequence (Q8WXE1 whole entry partner): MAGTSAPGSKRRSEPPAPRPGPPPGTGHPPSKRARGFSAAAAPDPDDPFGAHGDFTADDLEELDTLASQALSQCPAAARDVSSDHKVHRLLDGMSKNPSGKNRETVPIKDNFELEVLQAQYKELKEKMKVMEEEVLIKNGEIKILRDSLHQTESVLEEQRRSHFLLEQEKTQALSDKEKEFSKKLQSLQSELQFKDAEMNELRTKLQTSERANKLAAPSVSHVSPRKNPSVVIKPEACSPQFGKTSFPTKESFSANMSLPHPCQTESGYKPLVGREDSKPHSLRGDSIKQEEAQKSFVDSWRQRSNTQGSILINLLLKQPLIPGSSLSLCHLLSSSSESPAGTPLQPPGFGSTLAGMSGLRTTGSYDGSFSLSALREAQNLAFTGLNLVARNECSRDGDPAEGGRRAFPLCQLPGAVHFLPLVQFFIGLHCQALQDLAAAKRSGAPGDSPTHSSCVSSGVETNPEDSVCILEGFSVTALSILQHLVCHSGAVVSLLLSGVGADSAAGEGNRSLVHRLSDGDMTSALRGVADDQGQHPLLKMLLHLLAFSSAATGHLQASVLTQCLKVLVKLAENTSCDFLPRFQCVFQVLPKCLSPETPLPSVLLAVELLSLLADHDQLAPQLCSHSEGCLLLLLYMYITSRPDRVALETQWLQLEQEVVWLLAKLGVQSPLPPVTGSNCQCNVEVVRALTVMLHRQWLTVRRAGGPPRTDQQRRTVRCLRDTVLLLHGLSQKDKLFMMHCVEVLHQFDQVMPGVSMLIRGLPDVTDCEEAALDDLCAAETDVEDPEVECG
Description: as §1
ATR is a PI3-kinase-related kinase which phosphorylates multiple substrates on serine or threonine residues in response to DNA damage during or replication blocks. Chk1, a downstream protein kinase of ATR, plays a key role in DNA damage checkpoint control. Activation of Chk1 involves phosphorylation of Ser317 and Ser345 (the latter regarded as the preferential target for phosphorylation/activation by ATR).
The following morning compound of Formula (I) in 100% DMSO were added to assay plates by acoustic dispensing. After 1 h incubation at 37° C. and 5% CO2, 40 nl of 3 mM 4NQO in 100% DMSO was added to all wells by acoustic dispensing, except minimum control wells which were left untreated with 4NQO to generate a null response control. Plates were returned to the incubator for a further 1 h. Then cells were fixed by adding 20 μl of 3.7% formaldehyde in PBS solution and incubating for 20 mins at r.t. Then […] of 0.1% Triton X100 in PBS was added and incubated for 10 minutes at r.t., to permeabalise cells. Then the plates were washed once with […] PBS, using a Biotek EL405 plate washer.
After 2 h incubation at r.t., the plates were washed three times with […] PBS, using a Biotek EL405 plate washer, and plates were then sealed with black plate seals until read. Plates were read using an ArrayScan VTI instrument, using an XF53 filter with 10× objective.

| SMILES | IC50 [1] | IC50 [2] |
| --- | --- | --- |
| CO[C@H]1CC[C@H](n2c(=O)n(C)c3cnc4ccc(-c5ccc(N6CC(N(C)C)C6)nc5)cc4c32)C1 (single isomer, unassigned) [Example 23, 8-[6-[3-(dimethylamino)azetidin-1-yl]-3-pyridyl]-1-[trans-3-methoxycyclopentyl]-3-methyl-imidazo[4,5-c]quinolin-2-one] | 22.8 nM | > 24000 nM |
| CO[C@@H]1CCC[C@H](n2c(=O)n(C)c3cnc4ccc(-c5ccc(N6CCC(N(C)C)CC6)nc5)cc4c32)C1 (single isomer, unassigned) [Example 46, 8-[6-[4-(dimethylamino)-1-piperidyl]-3-pyridyl]-1-[cis-3-methoxycyclohexyl]-3-methyl-imidazo[4,5-c]quinolin-2-one] | 7.7 nM | > 10000 nM |
| CO[C@H]1CCC[C@H](n2c(=O)n(C)c3cnc4ccc(-c5ccc(N6CC[C@@H](N(C)C)C6)nc5)cc4c32)C1 (single isomer, unassigned) [Example 52] | 0.112 nM | 61.6 nM |
| CO[C@H]1CC[C@H](n2c(=O)n(C)c3cnc4ccc(-c5ccc(N6CC[C@@H](N(C)C)C6)nc5)cc4c32)C1 [Example 5, 8-[6-[(3R)-3-(Dimethylamino)pyrrolidin-1-yl]-3-pyridyl]-1-[(1S,3S)-3-methoxycyclopentyl]-3-methyl-imidazo[4,5-c]quinolin-2-one] | 0.312 nM | 284 nM |
| CO[C@@H]1CCC[C@H](n2c(=O)n(C)c3cnc4ccc(-c5ccc(N6CC(N(C)C)C6)nc5)cc4c32)C1 (single isomer, unassigned) [Example 49, 8-[6-[3-(dimethylamino)azetidin-1-yl]-3-pyridyl]-1-[cis-3-methoxycyclohexyl]-3-methyl-imidazo[4,5-c]quinoline-2-one] | 15.3 nM | 1910 nM |
| CO[C@H]1CC[C@@H](n2c(=O)n(C)c3cnc4ccc(-c5ccc(N6CC[C@@H](N(C)C)C6)nc5)cc4c32)CC1 (single isomer, unassigned) [Example 44] | 0.889 nM | 1120 nM |
| CO[C@H]1C[C@@H](n2c(=O)n(C)c3cnc4cc(F)c(-c5ccc(N6CCC[C@@H](N(C)C)C6)nc5)cc4c32)C1 [Example 43, 8-[6-[(3R)-3-(dimethylamino)-1-piperidyl]-3-pyridyl]-7-fluoro-1-(cis-3-methoxycyclobutyl)-3-methyl-imidazo[4,5-c]quinolin-2-one] | 72 nM | > 30000 nM |
| CO[C@@H]1CCC[C@H](n2c(=O)n(C)c3cnc4ccc(-c5ccc(N6CC[C@@H](N(C)C)C6)nc5)cc4c32)C1 (single isomer, unassigned) [Example 47] | 2.7 nM | 1800 nM |
| CO[C@H]1CC[C@H](n2c(=O)n(C)c3cnc4cc(F)c(-c5ccc(N6CC(N(C)C)C6)nc5)cc4c32)C1 (single isomer, unassigned) [Example 29, 8-[6-[3-(dimethylamino)azetidin-1-yl]-3-pyridyl]-7-fluoro-1-[trans-3-methoxycyclopentyl]-3-methyl-imidazo[4,5-c]quinolin-2-one] | 9.68 nM | > 30000 nM |
| CO[C@H]1CCC[C@H](n2c(=O)n(C)c3cnc4ccc(-c5ccc(N6CC[C@@H](N(C)C)C6)nc5)cc4c32)C1 (single isomer, unassigned) [Example 51] | 0.589 nM | 90.6 nM |
| CN(C)[C@@H]1CCN(c2ccc(-c3ccc4ncc5c(c4c3)n([C@H]3CCOC3)c(=O)n5C)cn2)C1 [Example 8] | 1.04 nM | 261 nM |
| CN(C)[C@@H]1CCN(c2ccc(-c3cc4c(cc3F)ncc3c4n([C@H]4CCCOC4)c(=O)n3C)cn2)C1 [Example 15] | 1.46 nM | > 30000 nM |
| CN(C)C1CN(c2ccc(-c3ccc4ncc5c(c4c3)n([C@H]3CCCOC3)c(=O)n5C)cn2)C1 [Example 24, 8-[6-[3-(dimethylamino)azetidin-1-yl]-3-pyridyl]-3-methyl-1-[(3S)-tetrahydropyran-3-yl]imidazo[4,5-c]quinolin-2-one] | 16.6 nM | 9230 nM |
